Several values for one entry are separate records, joined by “and”; a condition that tells them apart may be missing. Identical values can stand only once. Like-named read-outs stand apart in the source and are kept apart here.
Columns and labels:
CDK2-CYCLINA = target: T1, CDK2-CYCLINA (Homo sapiens, UniProt P24941); experiment: CDK inhibition assay (microfluidic LabChip, IC50 format); assay type: biochemical
T1 construct: purchased Millipore

CDK2-CYCLINE = target: T2, CDK2-CYCLINE (Homo sapiens, UniProt P24941); experiment: as above; assay type: biochemical; details: Table 3; purified enantiomers; read-out: CDK2-E (E1/E2)
T2 construct: purchased Millipore

CDK6-CYCLIND3 = target: T3, CDK6-CYCLIND3 (Homo sapiens, UniProt Q00534); experiment: as above; assay type: biochemical
T3 construct: purchased Carna
T3 sequence (Q00534 whole entry): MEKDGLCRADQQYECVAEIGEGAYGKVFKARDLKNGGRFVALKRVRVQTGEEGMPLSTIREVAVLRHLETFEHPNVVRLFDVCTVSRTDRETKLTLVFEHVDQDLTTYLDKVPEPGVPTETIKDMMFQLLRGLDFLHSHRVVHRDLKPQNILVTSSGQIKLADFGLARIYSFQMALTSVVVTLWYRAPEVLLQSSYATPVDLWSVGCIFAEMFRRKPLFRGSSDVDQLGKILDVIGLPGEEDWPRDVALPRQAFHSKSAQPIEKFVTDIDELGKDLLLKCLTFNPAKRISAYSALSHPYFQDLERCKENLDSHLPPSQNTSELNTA
T3 sequence (P30281 whole entry partner): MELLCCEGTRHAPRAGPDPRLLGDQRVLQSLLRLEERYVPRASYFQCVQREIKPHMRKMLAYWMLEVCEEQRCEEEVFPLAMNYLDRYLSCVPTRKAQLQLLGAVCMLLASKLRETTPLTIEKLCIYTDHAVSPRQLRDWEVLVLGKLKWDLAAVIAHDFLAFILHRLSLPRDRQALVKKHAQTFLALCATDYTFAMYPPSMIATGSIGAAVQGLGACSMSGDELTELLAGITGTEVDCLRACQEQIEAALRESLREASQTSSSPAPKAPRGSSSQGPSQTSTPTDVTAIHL

CDK9-CYCLINT1 = target: T4, CDK9-CYCLINT1 (Homo sapiens, UniProt P50750); experiment: as above; assay type: biochemical
T4 construct: purchased Carna
T4 sequence (P50750 whole entry): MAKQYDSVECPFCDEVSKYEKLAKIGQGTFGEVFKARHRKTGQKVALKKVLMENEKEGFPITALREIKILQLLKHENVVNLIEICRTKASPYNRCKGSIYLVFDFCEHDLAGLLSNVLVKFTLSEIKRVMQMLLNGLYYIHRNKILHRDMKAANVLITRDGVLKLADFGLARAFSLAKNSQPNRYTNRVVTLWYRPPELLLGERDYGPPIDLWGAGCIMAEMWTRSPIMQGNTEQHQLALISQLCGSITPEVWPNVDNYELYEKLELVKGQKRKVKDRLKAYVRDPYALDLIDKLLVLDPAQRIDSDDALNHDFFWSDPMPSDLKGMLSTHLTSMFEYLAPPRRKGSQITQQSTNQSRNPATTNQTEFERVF
T4 sequence (O60563 whole entry partner): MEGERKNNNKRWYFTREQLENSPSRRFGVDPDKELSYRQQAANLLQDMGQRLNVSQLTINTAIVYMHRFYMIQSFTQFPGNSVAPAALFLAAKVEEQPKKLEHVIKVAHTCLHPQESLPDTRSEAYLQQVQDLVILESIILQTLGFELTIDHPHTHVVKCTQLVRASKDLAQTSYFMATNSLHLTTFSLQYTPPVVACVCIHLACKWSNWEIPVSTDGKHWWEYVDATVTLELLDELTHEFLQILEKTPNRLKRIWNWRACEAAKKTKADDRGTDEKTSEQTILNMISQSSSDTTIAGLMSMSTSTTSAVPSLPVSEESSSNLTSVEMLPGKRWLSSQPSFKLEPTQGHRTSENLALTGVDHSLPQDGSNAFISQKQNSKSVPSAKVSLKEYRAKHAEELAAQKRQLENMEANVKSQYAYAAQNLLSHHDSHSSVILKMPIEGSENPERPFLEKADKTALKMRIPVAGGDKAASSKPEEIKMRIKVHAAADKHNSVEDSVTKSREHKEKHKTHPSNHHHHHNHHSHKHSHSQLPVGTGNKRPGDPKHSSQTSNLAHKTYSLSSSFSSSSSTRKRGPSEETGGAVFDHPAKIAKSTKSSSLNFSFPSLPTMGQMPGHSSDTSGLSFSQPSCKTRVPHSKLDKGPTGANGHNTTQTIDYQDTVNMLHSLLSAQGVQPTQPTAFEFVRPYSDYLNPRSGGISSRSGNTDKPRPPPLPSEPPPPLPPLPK

CDK4-CYCLIND1 = CDK4-CYCLIND1 (Homo sapiens, UniProt P11802); experiment: as above
Chain of CDK4-CYCLIND1 (P11802 whole entry): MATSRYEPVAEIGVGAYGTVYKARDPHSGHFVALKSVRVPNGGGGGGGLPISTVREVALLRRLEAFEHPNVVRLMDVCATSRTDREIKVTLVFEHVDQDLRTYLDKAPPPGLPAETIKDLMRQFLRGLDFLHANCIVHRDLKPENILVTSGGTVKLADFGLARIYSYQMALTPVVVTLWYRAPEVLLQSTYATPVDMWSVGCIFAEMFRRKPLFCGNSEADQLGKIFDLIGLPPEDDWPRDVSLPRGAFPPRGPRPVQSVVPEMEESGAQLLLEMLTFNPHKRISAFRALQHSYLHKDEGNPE
Chain of CDK4-CYCLIND1 (P24385 whole entry partner): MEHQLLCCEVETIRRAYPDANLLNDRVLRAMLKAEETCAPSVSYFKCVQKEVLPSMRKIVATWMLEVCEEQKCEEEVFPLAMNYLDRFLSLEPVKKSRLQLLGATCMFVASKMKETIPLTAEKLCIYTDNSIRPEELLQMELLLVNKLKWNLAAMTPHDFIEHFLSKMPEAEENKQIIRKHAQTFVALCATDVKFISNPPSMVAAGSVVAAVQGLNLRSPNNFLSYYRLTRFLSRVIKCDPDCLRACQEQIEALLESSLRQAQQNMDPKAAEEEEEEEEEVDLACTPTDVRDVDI

CDK1/B = CDK1/B (Homo sapiens, UniProt P06493); experiment: as above; assay type: biochemical
Chain of CDK1/B (P06493 whole entry, species assumed): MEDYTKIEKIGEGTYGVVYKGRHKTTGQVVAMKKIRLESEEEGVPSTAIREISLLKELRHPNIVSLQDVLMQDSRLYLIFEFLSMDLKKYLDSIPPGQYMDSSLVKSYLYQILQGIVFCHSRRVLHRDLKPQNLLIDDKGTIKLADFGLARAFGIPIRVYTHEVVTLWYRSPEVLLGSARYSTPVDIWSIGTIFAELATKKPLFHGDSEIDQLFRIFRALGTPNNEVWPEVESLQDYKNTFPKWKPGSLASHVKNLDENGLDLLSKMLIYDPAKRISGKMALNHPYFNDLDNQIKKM
Chain of CDK1/B (P14635 whole entry partner, species assumed): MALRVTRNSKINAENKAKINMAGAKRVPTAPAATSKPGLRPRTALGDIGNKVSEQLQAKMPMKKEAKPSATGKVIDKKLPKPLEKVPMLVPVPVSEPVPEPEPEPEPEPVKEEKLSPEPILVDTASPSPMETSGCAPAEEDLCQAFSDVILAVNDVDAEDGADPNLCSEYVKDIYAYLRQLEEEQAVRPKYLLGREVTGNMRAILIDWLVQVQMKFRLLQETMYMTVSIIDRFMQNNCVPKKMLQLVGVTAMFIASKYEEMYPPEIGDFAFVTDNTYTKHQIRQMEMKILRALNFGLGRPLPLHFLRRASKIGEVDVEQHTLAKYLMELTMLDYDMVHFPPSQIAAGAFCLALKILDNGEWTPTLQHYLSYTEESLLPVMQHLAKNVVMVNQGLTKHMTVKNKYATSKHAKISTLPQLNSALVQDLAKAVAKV

CDK7 CyclinH = CDK7 CyclinH (Homo sapiens, UniProt P50613); experiment: as above; assay type: biochemical
Chain of CDK7 CyclinH (P50613 whole entry): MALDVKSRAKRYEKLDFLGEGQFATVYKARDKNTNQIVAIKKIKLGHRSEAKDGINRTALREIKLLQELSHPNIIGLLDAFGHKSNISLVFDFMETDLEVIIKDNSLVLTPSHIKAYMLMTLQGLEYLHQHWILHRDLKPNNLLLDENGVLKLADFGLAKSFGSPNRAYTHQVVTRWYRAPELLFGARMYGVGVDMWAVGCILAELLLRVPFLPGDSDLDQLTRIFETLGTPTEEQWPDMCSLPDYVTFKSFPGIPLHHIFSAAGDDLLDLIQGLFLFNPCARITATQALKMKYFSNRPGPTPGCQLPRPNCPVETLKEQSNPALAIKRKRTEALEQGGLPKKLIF
Chain of CDK7 CyclinH (P51946 whole entry partner): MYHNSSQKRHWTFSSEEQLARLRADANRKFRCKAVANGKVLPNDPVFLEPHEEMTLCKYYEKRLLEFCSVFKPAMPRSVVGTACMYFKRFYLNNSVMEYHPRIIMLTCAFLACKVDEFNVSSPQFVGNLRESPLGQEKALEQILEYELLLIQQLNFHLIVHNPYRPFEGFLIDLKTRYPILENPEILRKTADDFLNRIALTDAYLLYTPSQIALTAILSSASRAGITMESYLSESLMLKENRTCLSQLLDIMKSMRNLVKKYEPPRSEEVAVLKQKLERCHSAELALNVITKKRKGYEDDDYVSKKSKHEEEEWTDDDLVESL
Chain of CDK7 CyclinH (P51948 whole entry partner): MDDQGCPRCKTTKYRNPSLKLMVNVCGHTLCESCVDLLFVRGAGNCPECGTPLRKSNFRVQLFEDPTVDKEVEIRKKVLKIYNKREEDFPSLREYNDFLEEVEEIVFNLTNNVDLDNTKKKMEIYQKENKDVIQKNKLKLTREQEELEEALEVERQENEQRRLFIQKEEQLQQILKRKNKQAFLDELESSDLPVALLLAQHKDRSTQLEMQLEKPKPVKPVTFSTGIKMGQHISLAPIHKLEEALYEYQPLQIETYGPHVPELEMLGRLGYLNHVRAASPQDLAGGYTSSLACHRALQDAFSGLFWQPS

LEXFAM MV4-11 = experiment: 2D cell proliferation assay (CellTiter-Blue); assay type: cell-based; details: Homo sapiens, 72 h, three days of treatment, read-out: abs. IC50
Method: (§1) Viability of the cells was analyzed by using the CellTiter-Blue® Cell Viability Assay (Promega), and was performed according to manufacturer's instructions. Briefly, cells were harvested from exponential phase cultures (Chapter 6.6), counted and plated in 96-well flat-bottom microtiter plates at a cell density of 4,000-60,000 cells/well in a volume of 140 μl per well. After a 24 hours recovery period, 10 μL cell culture medium (six control wells/plate) or culture medium with test compound were added (Chapter 6.2). The compounds were applied at five concentrations in full-log increments up to 100 μM in duplicate. Cultures were incubated at 37° C. and 5% CO2 in a humidified atmosphere for another three days. After three days of treatment, 20 μl/well CellTiter-Blue® reagent was added. Following incubation with CellTiter-Blue® reagent for up to four hours, fluorescence (FU) was measured by using the Enspire Multimode Plate Reader (excitation λ=570 nm, emission λ=600 nm). For calculations, the mean values of duplicate/sextuplicate (untreated control) data were used.
(§2) An assay was considered fully evaluable if the following quality control criteria were fulfilled: • control/background ratio>3.0-Z′-factor calculated within the assay plate>0.5 [7]—coefficient of variation in the growth control wells <30%
(§3) Drug effects were expressed in terms of the percentage of the fluorescence signal, obtained by comparison of the mean signal in the treated wells with the mean signal of the untreated controls (expressed by the test-versus-control value, T/C-value [%]):
(§4) IC values are reported as relative IC50 values and absolute IC50 and IC70 values. […] The absolute IC70 value gives the concentration of the test compound that achieves T/C=30%. The relative IC50 value is the concentration of test compound that gives a response halfway between the top and bottom plateau of the sigmoidal concentration-response curve (inflection point of the curve). Calculation was done by 4parameter non-linear curve fit (Oncotest Data Warehouse Software).
(§5) If an IC50 or IC70 value could not be determined within the examined dose range (because a compound was either too active or lacked activity), the lowest or highest concentration studied was used for calculation of the geometric mean value.

LXFA A549 = experiment: 2D cell proliferation assay (CellTiter-Blue); assay type: cell-based; details: Homo sapiens, 72 h, three days of treatment, read-out: abs. IC50
Method: as §1, §2, §3, §4, §5

LXFL NCl-H1299 = experiment: 2D cell proliferation assay (CellTiter-Blue); assay type: cell-based; details: 72 h, three days of treatment, read-out: abs. IC50
Method: as §1, §2, §3, §4, §5

MAXFLB MCF7 (ER+) = experiment: 2D cell proliferation assay (CellTiter-Blue); assay type: cell-based; details: Homo sapiens, 72 h, three days of treatment, read-out: abs. IC50
Method: as §1, §2, §3, §4, §5

MAXFTN ZR-75-1 (ER+) = experiment: 2D cell proliferation assay (CellTiter-Blue); assay type: cell-based; details: Homo sapiens, 72 h, three days of treatment, read-out: abs. IC50
Method: as §1, §2, §3, §4, §5

MEXF WM-266-4 = experiment: 2D cell proliferation assay (CellTiter-Blue); assay type: cell-based; details: Homo sapiens, 72 h, three days of treatment, read-out: abs. IC50
Method: as §1, §2, §3, §4, §5

all cell lines tested = experiment: 2D cell proliferation assay, geometric mean over the cell line panel; assay type: cell-based; details: Table 5 lower part; geometric mean over the 8-line panel; read-out: Geomean abs. IC50 value
Method: as §1, §4, §5
The overall potency of a compound was determined by the geometric mean IC50/IC70 values of all individual IC50/IC70 values. In the heatmap representation of IC50 and IC70 values, the distribution of the IC50 or IC70 values obtained for a test compound in the individual cell lines is given in relation to the geometric mean IC50 or IC70 value, obtained over all PDX models tested. The individual IC values range from 1/32-fold geometric mean IC (corresponding to very potent compound activity or high tumor sensitivity) to 32-fold geometric mean IC (corresponding to lack of compound activity or tumor resistance). The heatmap presentation, therefore, represents an antiproliferative “fingerprint” profile of a test compound.

[1] = Table 3, purified enantiomers, read-out: CDK2-A (E1/E2)
[2] = Table 3, purified enantiomers, read-out: CDK6 (E1/E2)
[3] = Table 3, purified enantiomers, read-out: CDK9-T (E1/E2)
[4] = CDK4 (E1/E2), Table 3, purified enantiomers
[5] = Table 4b, lower part, read-out: CDK2 CyclinA IC50
[6] = Table 4b, lower part, read-out: CDK9 CyclinT1 IC50
[7] = CDK4 CyclinD1 IC50, Table 4b, lower part, a second value in parentheses for some compounds
[8] = Table 4a, read-out: CDK2 CyclinA IC50
[9] = Table 4a, read-out: CDK9 CyclinT1 IC50
[10] = CDK4 CyclinD1 IC50, Table 4a, a second value in parentheses for some compounds
[11] = Table 4a, read-out: CDK6 CyclinD3 IC50

Structure (SMILES)	IC50 (CDK2-CYCLINA; [1]) [nM]	IC50 (CDK2-CYCLINE) [nM]	IC50 (CDK6-CYCLIND3; [2]) [nM]	IC50 (CDK4-CYCLIND1; [4]) [nM]	IC50 (CDK1/B; Table 4b, lower part) [nM]	IC50 (CDK2-CYCLINA; [5]) [nM]	IC50 (CDK7 CyclinH; Table 4b, lower part) [nM]	IC50 (CDK9-CYCLINT1; [6]) [nM]	IC50 (CDK4-CYCLIND1; [7]) [nM]	IC50 (CDK2-CYCLINA; [8])	IC50 (CDK7 CyclinH; Table 4a) [nM]	IC50 (CDK9-CYCLINT1; [9])	other results
O=C1NCC[C@]12Cc1cnc(Nc3ccc(N4CCNCC4)c(F)c3)nc1N(C1CCCC1)C2=O [Example D49, (R)-8-cyclopentyl-2-((3-fluoro-4-(piperazin-1-yl)phenyl)amino)-5,8-dihydro-7H-spiro[pyrido[2,3-d]pyrimidine-6,3′-pyrrolidine]-2′,7-dione]	3410	5660	360	136	–	–	–	–	–	–	–	–	IC50 (CDK9-CYCLINT1; [3]): 1240 nM
O=C1NCC[C@]12Cc1cnc(Nc3ccc(N4CCNCC4)cc3)nc1N(C1CCCC1)C2=O [Example D55, (R)-8-cyclopentyl-2-((4-(piperazin-1-yl)phenyl)amino)-5,8-dihydro-7H-spiro[pyrido[2,3-d]pyrimidine-6,3′-pyrrolidine]-2′,7-dione]	6000	8880	519	251	–	–	–	–	–	–	–	–	IC50 (CDK9-CYCLINT1; [3]): 1800 nM
CN1CCC(c2ccc(Nc3ncc4c(n3)N(C3CCCC3)C(=O)[C@]3(CCNC3=O)C4)cc2)CC1 [Example D135, (S)-8-cyclopentyl-2-((4-(1-methylpiperidin-4-yl)phenyl)amino)-5,8-dihydro-7H-spiro[pyrido[2,3-d]pyrimidine-6,3′-pyrrolidine]-2′,7-dione]	–	–	–	–	205	89.8	222	4.31	< 3.2	–	–	–	–
CN(C)CCOc1ccc(Nc2ncc3c(n2)N(C2CCCC2)C(=O)[C@]2(CCNC2=O)C3)nc1 [Example D138, (S)-8-cyclopentyl-2-((5-(2-(dimethylamino)ethoxy)pyridin-2-yl)amino)-5,8-dihydro-7H-spiro[pyrido[2,3-d]pyrimidine-6,3′-pyrrolidine]-2′,7-dione]	–	–	–	–	–	–	–	–	–	> 10000 nM	> 10000	204 nM	IC50 (CDK1/B; Table 4a): > 10000 nM; IC50 (CDK4-CYCLIND1; [10]): 4.58 nM
CC1CN(c2ccc(Nc3ncc4c(n3)N(C3CCCC3)C(=O)[C@]3(CCNC3=O)C4)cc2)CC(C)N1 (stereo partly drawn) [Example D199, (6S)-8-cyclopentyl-2-((4-(3,5-dimethylpiperazin-1-yl)phenyl)amino)-5,8-dihydro-7H-spiro[pyrido[2,3-d]pyrimidine-6,3′-pyrrolidine]-2′,7-dione]	–	–	–	–	353	74.6	406	3.74	< 3.2	–	–	–	–
CC1CN(c2ccc(Nc3ncc4c(n3)N(C35CC(C3)C5)C(=O)[C@]3(CCNC3=O)C4)cc2)CC(C)N1 (stereo partly drawn) [Example D200, (6S)-8-(bicyclo[1.1.1]pentan-1-yl)-2-((4-(3,5-dimethylpiperazin-1-yl)phenyl)amino)-5,8-dihydro-7H-spiro[pyrido[2,3-d]pyrimidine-6,3′-pyrrolidine]-2′,7-dione]	–	–	–	–	8670	3420	3770	72.6	39.7	–	–	–	–
O=C1NCC[C@@]12Cc1cnc(Nc3ccc(N4CCN(C5CC5)CC4)cc3)nc1N(C1CCCC1)C2=O [Example D202, (S)-8-cyclopentyl-2-((4-(4-cyclopropylpiperazin-1-yl)phenyl)amino)-5,8-dihydro-7H-spiro[pyrido[2,3-d]pyrimidine-6,3′-pyrrolidine]-2′,7-dione]	–	–	–	–	295	40.4	276	> 10000	< 3.2	–	–	–	–

The next lines start with results.

IC50 (CDK2-CYCLINA; [1]) [nM]	IC50 (CDK2-CYCLINE) [nM]	IC50 (CDK6-CYCLIND3; [2]) [nM]	IC50 (CDK4-CYCLIND1; [4]) [nM]	IC50 (CDK1/B; Table 4b, lower part) [nM]	IC50 (CDK2-CYCLINA; [5]) [nM]	IC50 (CDK7 CyclinH; Table 4b, lower part) [nM]	IC50 (CDK9-CYCLINT1; [6]) [nM]	IC50 (CDK4-CYCLIND1; [7]) [nM]	IC50 (CDK2-CYCLINA; [8])	IC50 (CDK7 CyclinH; Table 4a) [nM]	IC50 (CDK9-CYCLINT1; [9])	Structure (SMILES)	other results
5940	11500	444	211	–	–	–	–	–	–	–	–	CN1CCN(c2ccc(Nc3ncc4c(n3)N(C3CCCC3)C(=O)[C@@]3(CCNC3=O)C4)cc2F)CC1 [Example D51, (R)-8-cyclopentyl-2-((3-fluoro-4-(4-methylpiperazin-1-yl)phenyl)amino)-5,8-dihydro-7H-spiro[pyrido[2,3-d]pyrimidine-6,3′-pyrrolidine]-2′,7-dione]	IC50 (CDK9-CYCLINT1; [3]): 1150 nM
9670	12100	384	178	–	–	–	–	–	–	–	–	CC(C)N1CCN(c2ccc(Nc3ncc4c(n3)N(C3CCCC3)C(=O)[C@@]3(CCNC3=O)C4)cc2F)CC1 [Example D53, (R)-8-cyclopentyl-2-((3-fluoro-4-(4-isopropylpiperazin-1-yl)phenyl)amino) -5,8-dihydro-7H-spiro[pyrido[2,3-d]pyrimidine-6,3′-pyrrolidine]-2′,7-dione]	–
–	–	–	–	–	–	–	–	–	29.2 nM	229	4.84 nM	CN1CCN(c2ccc(Nc3ncc4c(n3)N(C3CCCC3)C(=O)[C@]3(CCNC3=O)C4)cc2)CC1 [Example D144, (S)-8-cyclopentyl-2-((4-(4-methylpiperazin-1-yl)phenyl)amino)-5,8-dihydro-7H-spiro[pyrido[2,3-d]pyrimidine-6,3′-pyrrolidine]-2′,7-dione]	IC50 (CDK6-CYCLIND3; [11]): 1.54 nM; IC50 (LEXFAM MV4-11): 10 nM; IC50 (LXFA A549): 1290 nM; IC50 (LXFL NCl-H1299): 219 nM; IC50 (MAXFLB MCF7 (ER+)): 114 nM; IC50 (MAXFTN ZR-75-1 (ER+)): 100000 nM; IC50 (MEXF WM-266-4): 358 nM; IC50 (all cell lines tested): 475 nM
–	–	–	–	–	–	–	–	–	83200 nM and > 10000 nM	> 100000	6250 nM and 987 nM	CC(C)N1CCN(c2ccc(Nc3ncc4c(n3)N(C3CCCC3)C(=O)[C@]3(CCNC3=O)C4)c(F)c2)CC1 [Example D148, (S)-8-cyclopentyl-2-((2-fluoro-4-(4-isopropylpiperazin-1-yl)phenyl)amino)-5,8-dihydro-7H-spiro[pyrido[2,3-d]pyrimidine-6,3′-pyrrolidine]-2′,7-dione]	IC50 (CDK1/B; Table 4a): > 10000 nM; IC50 (CDK6-CYCLIND3; [11]): 4670 nM; IC50 (CDK4-CYCLIND1; [10]): 1270 nM and 188 nM
–	–	–	–	–	–	–	–	–	22.2 nM	120	5.25 nM	Cc1cc(Nc2ncc3c(n2)N(C2CCCC2)C(=O)[C@]2(CCNC2=O)C3)ccc1N1CCN(C(C)C)CC1 [Example D158, (S)-8-cyclopentyl-2-((4-(4-isopropylpiperazin-1-yl)-3-methylphenyl)amino)-5,8-dihydro-7H-spiro[pyrido[2,3-d]pyrimidine-6,3′-pyrrolidine]-2′,7-dione]	IC50 (CDK6-CYCLIND3; [11]): 2.17 nM; IC50 (LEXFAM MV4-11): 38 nM; IC50 (LXFA A549): 554 nM; IC50 (LXFL NCl-H1299): 257 nM; IC50 (MAXFLB MCF7 (ER+)): 55 nM; IC50 (MAXFTN ZR-75-1 (ER+)): 5520 nM; IC50 (MEXF WM-266-4): 451 nM; IC50 (all cell lines tested): 301 nM; IC50 (CDK4-CYCLIND1; [10]): 1.04 nM
–	–	–	–	2850	424	2970	7.85	5.04	–	–	–	CC(C)C1CCN(c2ccc(Nc3ncc4c(n3)N(C3CCCC3)C(=O)[C@]3(CCNC3=O)C4)cc2)CC1 [Example D201, (S)-8-cyclopentyl-2-((4-(4-isopropylpiperidin-1-yl)phenyl)amino)-5,8-dihydro-7H-spiro[pyrido[2,3-d]pyrimidine-6,3′-pyrrolidine]-2′,7-dione]	–

Source: patent US20230048132A1, “CYCLIN-DEPENDENT KINASE INHIBITORS” (SPV THERAPEUTICS INC., priority 2018, published 2023)
